Laboratory results from patent publication US20100298370A1, “BENZOTHIAZOLYL THIENOPYRIDINE DERIVATIVES AND USES THEREOF” (priority 2006, published 2010).
Entries after “also recorded” stand apart in the source; their conditions may differ.

How the values were obtained:
[1] = molecular target: T1, VEGF binding to heparin (HS-GAG) (Homo sapiens, UniProt P15692); test: In vitro VEGF to HS-GAG binding assay (ELISA, heparin-BSA coated plate)
T1 construct: purchased Research and Development Systems
T1 sequence (P15692 27-191 isoform P15692-4): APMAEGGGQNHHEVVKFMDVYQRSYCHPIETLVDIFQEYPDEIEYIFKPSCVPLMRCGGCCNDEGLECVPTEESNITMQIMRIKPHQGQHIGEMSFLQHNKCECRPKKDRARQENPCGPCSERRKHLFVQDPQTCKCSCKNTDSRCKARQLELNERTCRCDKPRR
Text: An in vitro assay was used to assess the ability of test compounds of general formulas I and II to inhibit the interaction of VEGF with HS-GAGs. The assay was designed to for determine the concentration required for 50% inhibition (IC-50) for each specific compound. The test compounds were purchased from Life Chemicals Ltd. (Kiev, Ukraine), and the GAG used was heparin (heparin grade I-A; Sigma) conjugated to bovine serum albumin (Sigma) and diluted 1:200 in phosphate-buffered saline (PBS; pH 7.3). The heparin was added to a 96-well polystyrene ELISA plate (NUNC; 0.1 ml per well) and incubated overnight at 4° C. Following the incubation, the plate was washed thoroughly, by immersion, with de-ionized water and then with PBS (pH 7.3) containing Tween 20 (Sigma, 0.05%). The ELISA plate was then blocked with BSA (ICN, 3%, 200 μl per well) for 1 hour at room temperature. Following blocking, the plate was washed with de-ionized water, and then twice with PBS (pH 7.3) containing Tween 20. Recombinant human VEGF (Research and Development Systems) dissolved in PBS supplemented with BSA (0.1%) was added to the ELISA plate. The test compounds were dissolved in DMSO (MERCK), diluted in PBS and added to the wells at concentrations ranging from 0.01 to 200 μM to obtain a final volume 100 μl per well, and incubated for 60 minutes at room temperature with shaking. Following incubation, the plate was washed with de-ionized water and PBS (pH 7.3) containing Tween 20. Anti-human VEGF (1:2000; Research and Development Systems) diluted in PBS supplemented with BSA (1%) was added to the ELISA plate (100 per well) and incubated for 60 minutes at room temperature with shaking. Following incubation, the plate was washed with de-ionized water and then with PBS (pH 7.3) containing Tween 20. Streptavidin-HRP (1:200; Research and Development Systems Cat. No. DY998) diluted in PBS supplemented with BSA (1%) was added to the ELISA plate (100 per well) and incubated for 20 minutes at room temperature with shaking. The plate was then washed with de-ionized water and twice with PBS (pH 7.3) containing Tween 20. The peroxidase substrate chromogen tetramethyl benzidine (TMB; Dako) was added (100 μl per well) to the ELISA plate and incubated at room temperature. After 15 minutes, ELISA Stop Solution (hydrochloric acid 1N, sulfuric acid 3N) was added (100 μl per well) to stop the peroxidase catalyzed colorimetric reaction. The Optical Density (OD) of the samples was measured at 450 nm using an ELISA plate reader (Dynatech MR5000). Data were analyzed with Graphpad Prism software and IC-50 values were determined.
Percent inhibition at 30 μM concentration is shown and for selected compounds IC-50 was established.

[2] = test system: carrageenan-induced paw edema in BALB/c mice; test: Carrageenan-induced paw edema; format: in vivo
Procedure: FIG. 1 is a graph showing the anti-inflammatory activity of Compounds 1-6 administered to mice intraperitoneally (i.p.) at 20 mg/kg, 1 hour before induction of paw edema (10-12 mice per group). The swelling of paws was measured 4 hours after induction, compared to controls and expressed as difference in paw thickness in mm (y-axis). The results were statistically evaluated by Student's t-test and statistical significance is indicated by one, two or three stars ([…]).
Acute edema was induced in the […] of BALB/c mice (10-12 mice/group) by injecting 0.02 ml of freshly prepared solution of 2% carrageenan (Sigma) under the plantar region of right hind paw (Tones et al., 2000). Carrageenan was injected 60 min after administration of the test compounds. The right paw received 0.02 ml of saline, which served as a control. The paw thickness was measured at 2, 4 and 24 hours after carrageenan challenge using a Mitutoyo engineer's micrometer. The difference between right and left pad was expressed as mean±SEM. Test compounds were injected intraperitoneally (i.p.) (20 mg/kg) in 0.5% Tween 80 in saline and vehicle control group received 0.5% Tween 80 in saline.
Compound 1 reduced paw edema by 33% and the reduction was statistically significant as determined by Student's t-test with […].

[3] = test system: oxazolone-induced ear swelling in BALB/c mice; test: Delayed-type hypersensitivity (DTH), oxazolone mouse ear-swelling test; format: in vivo; settings: for reduction of ear swelling: per os 50 mg/kg, 1 hour prior to challenge, after 48 hours; for inhibition of ear swelling (in words): DTH, FIG. 2, oral 50 mg/kg
Procedure: FIG. 2 is a graph showing the anti-inflammatory activity of Compounds 1, 2, 4, 5, 6 administered to mice orally at 50 mg/kg in a model of delayed-type hypersensitivity (DTH) (11-13 mice per group). The results for dexamethasone (10 mg/kg i.p.), a steroid positive control, are also shown. The y-axis represents difference in ear thickness in mm compared to control. The results were statistically evaluated by Student's t-test and statistical significance is indicated by one, two or three stars ([…]).
BALB/c mice (Velaz, Prague, Czech Republic; 8 week-old; 10-15 animals per group) were sensitized by topical application of a 2% oxazolone (4-ethoxymethylene-2-phenyl-2-oxazolin-5-one; Sigma, St Louis, Mo.) solution in acetone/olive oil (4:1 vol/vol) to a shaved abdomen area (50 μl) and to each paw (5 μl)(Lange-Asschenfeldt et al., 2002). Topical oxazolone administration induces immunomodulatory activity. Five days after sensitization, right ears were challenged by topical application of 10 μl of a 1% oxazolone solution, whereas left ears were treated with vehicle alone. Test compounds were administered 1 hour prior to challenge. The extent of inflammation was measured 24 hours and 48 hours after challenge, using the mouse ear-swelling test. Animals were numbered (tail marking) and weighed and the thickness of both ears was recorded with a constant-loading dial micrometer (Mitutoyo, Tokyo). The unpaired Student t-test was used for statistical analyses. Test compounds were administered per os at 50 mg/kg as a suspension with 0.5% methylcellulose. The vehicle control group received the same volume of 0.5% methylcellulose.

[4] = 20 mg/kg i.p., 60 min before carrageenan, 4 hours after induction

| SMILES | IC50 [1] | inhibition at 30 µM [1] | reduction of paw edema [2, 4] | reduction of ear swelling [3] | other results |
| --- | --- | --- | --- | --- | --- |
| CCN1CCc2c(sc(NC(=O)c3ccc(C#N)cc3)c2-c2nc3ccccc3s2)C1 [Compound 1, N-[3-(2-benzothiazolyl)-4,5,6,7-tetrahydro-6-ethylthieno[2,3-c]pyridin-2-yl]-4-cyanobenzamide] | 0.22 µM | 82% | 33% | 41.4% | – |
| CC(C)N1CCc2c(sc(NC(=O)c3ccc(N(C)C)cc3)c2-c2nc3ccccc3s2)C1 [Compound 2, N-[3-(2-benzothiazolyl)-4,5,6,7-tetrahydro-6-(1-methylethyl)thieno[2,3-c]pyridin-2-yl]-4-(dimethylamino)benzamide] | 1.7 µM | 53% | 28.1% | 18.1% | – |
| CSc1ccc(CC(=O)Nc2sc3c(c2-c2nc4ccccc4s2)CCN(C)C3)cc1 [Compound 3, N-[3-(2-benzothiazolyl)-4,5,6,7-tetrahydro-6-methylthieno[2,3-c]pyridin-2-yl]-2-(4-methylthiophenyl)acetamide] | – | 60% | 32.1% | – | – |
| COc1cccc(OCC(=O)Nc2sc3c(c2-c2nc4ccccc4s2)CCN(C)C3)c1 [Compound 4, N-[3-(2-benzothiazolyl)-4,5,6,7-tetrahydro-6-methylthieno[2,3-c]pyridin-2-yl]-2-(3-methoxyphenoxy)acetamide] | 1.8 µM | 65% | 22.8% | 33.5% | inhibition of ear swelling (in words) [3]: significantly inhibited ear swelling |
| CN1CCc2c(sc(NC(=O)c3cc4ccccc4o3)c2-c2nc3ccccc3s2)C1 [Compound 5, N-[3-(2-benzothiazolyl)-4,5,6,7-tetrahydro-6-methylthieno[2,3-c]pyridin-2-yl]-benzo[b]furan-2-carboxamide] | 0.14 µM | 81% | 29.2% | 49.3% | inhibition of ear swelling (in words) ([3]; 50 mg/kg): significantly inhibited ear swelling; also recorded: Particularly strong response, comparable with the steroid dexamethasone |
| CN1CCc2c(sc(NC(=O)CCN3C(=O)c4ccccc4C3=O)c2-c2nc3ccccc3s2)C1 [Compound 6, N-[3-(2-benzothiazolyl)-4,5,6,7-tetrahydro-6-methylthieno[2,3-c]pyridin-2-yl]-3-(1,3-dihydro-1,3-dioxo-2H-isoindole-2)propanamide] | – | 29% | 19.5% | 19.1% | inhibition of ear swelling (in words) [3]: significantly inhibited ear swelling |
| CN1CCc2c(sc(NC(=O)c3cccs3)c2-c2nc3ccccc3s2)C1 [Compound 7, N-[3-(2-benzothiazolyl)-4,5,6,7-tetrahydro-6-methylthieno[2,3-c]pyridin-2-yl]-2-thiophenecarboxamide] | 1.7 µM | 70% | – | 32.7% | reduction of paw edema ([2]; 50 mg/kg dose, separate experiment (data not shown)): 18.5% |
| CCOC(=O)N1CCc2c(sc(NC(=O)c3ccccc3)c2-c2nc3ccccc3s2)C1 [Compound 35, N-[3-(2-benzothiazolyl)-4,5,6,7-tetrahydro-6-ethoxycarbonylthieno[2,3-c]pyridin-2-yl]benzamide] | – | 37% | – | – | – |
| CC(=O)N1CCc2c(sc(NC(=O)c3cccc(Br)c3)c2-c2nc3ccccc3s2)C1 [Compound 36, N-[3-(2-benzothiazolyl)-4,5,6,7-tetrahydro-6-acetylthieno[2,3-c]pyridin-2-yl]-3-bromobenzamide] | – | 31% | – | – | – |
| CC(=O)N1CCc2c(sc(NC(=O)c3ccc(C#N)cc3)c2-c2nc3ccccc3s2)C1 [Compound 37, N-[3-(2-benzothiazolyl)-4,5,6,7-tetrahydro-6-acetylthieno[2,3-c]pyridin-2-yl]-4-cyanobenzamide] | 0.35 µM | 75% | – | – | – |
| CCN1CCc2c(sc(NC(=O)CCS(=O)(=O)c3ccccc3)c2-c2nc3ccccc3s2)C1 [Compound 38, N-[3-(2-benzothiazolyl)-4,5,6,7-tetrahydro-6-ethylthieno[2,3-c]pyridin-2-yl]-3-(phenylsulfonyl)propanamide] | – | 50% | – | – | – |
| Cc1ccc(S(=O)(=O)CC(=O)Nc2sc3c(c2-c2nc4ccccc4s2)CCN(C)C3)cc1 [Compound 39, N-[3-(2-benzothiazolyl)-4,5,6,7-tetrahydro-6-methylthieno[2,3-c]pyridin-2-yl]-(4-methylphenylsulfonyl)acetamide] | – | 42% | – | – | – |
| Cc1ccc(CC(=S)Nc2sc3c(c2-c2nc4ccccc4s2)CCN(C)C3)cc1 [Compound 40, N-[3-(2-benzothiazolyl)-4,5,6,7-tetrahydro-6-methylthieno[2,3-c]pyridin-2-yl]-(4-methylphenyl)thioacetamide] | – | 41% | – | – | – |
| C[C@@H]1C[C@H]2[C@@H]3CCC4=CC(=O)C=C[C@]4(C)[C@@]3(F)[C@@H](O)C[C@]2(C)[C@@]1(O)C(=O)CO [dexamethasone, reference compound] | – | – | – | – | reduction in ear swelling ([3]; dexamethasone positive control, i.p. (10 mg/kg per FIG. 2)): 46.5% |
